Measurements as given in patent publication US10806794B2, “Protease inhibitors having enhanced features” (priority 2008, dated 2020).
“And” between values parts separate entries of the source, which are not always exact repeats. Equal entries are not always repeated. Where two headings read alike, the source gives them in different places.

Experiments:
PBMCs = experiment: PBMC macromolecule synthesis (tritiated precursor incorporation); format: cell-based, human; details: for Thymidine Incorporation (PBMC) TC50: DNA synthesis; for Uridine Incorporation (PBMC) TC50: RNA synthesis; for Leucine Incorporation (PBMC) TC50: protein synthesis
Description: (§1) Cellular macromolecule synthesis was evaluated using tritiated precursor incorporation assays. PBMCs (5×10^4 cells/well) were cultured in the presence or absence of test compound for 7 days at 37 C, 5% CO2 in a 96-well microtiter plate. On day 6 of the incubation, 1 uCi of [methyl-3H]-thymidine for DNA synthesis, [5-3H]-uridine for RNA synthesis, or [3,4,5-3H]-leucine for protein synthesis was added to compound-treated cells, and the plate was further incubated for 16 hours. The cells were transferred to a glass fiber filtermat using an Inotech cell harvester. The filtermats were washed with distilled water then sealed in a bag with scintillation fluid. Incorporated radioactivity was measured using a Wallac scintillation counter.

CEM-SS cells = experiment: CEM-SS macromolecule synthesis (tritiated precursor incorporation); format: cell-based; details: for Thymidine incorportation (CEM-SS) TC50: DNA synthesis; for Uridine incorporation (CEM-SS) TC50: RNA synthesis; for Leucine Incorporation (CEM-SS) TC50: protein synthesis
Description: as §1, with “CEM-SS cells (2.5×10^3” for “PBMCs (5×10^4”

CYP3A4 = CYP3A4 (Homo sapiens (Human), UniProt P08684); experiment: CYP450 inhibition in human liver microsomes: CYP3A4;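 note: incubation at 37 °C started by adding 1 mM NADPH, with formation of the probe metabolite measured via LC-MS/MS or fluorescent detection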
Chain of CYP3A4 (P08684 whole entry): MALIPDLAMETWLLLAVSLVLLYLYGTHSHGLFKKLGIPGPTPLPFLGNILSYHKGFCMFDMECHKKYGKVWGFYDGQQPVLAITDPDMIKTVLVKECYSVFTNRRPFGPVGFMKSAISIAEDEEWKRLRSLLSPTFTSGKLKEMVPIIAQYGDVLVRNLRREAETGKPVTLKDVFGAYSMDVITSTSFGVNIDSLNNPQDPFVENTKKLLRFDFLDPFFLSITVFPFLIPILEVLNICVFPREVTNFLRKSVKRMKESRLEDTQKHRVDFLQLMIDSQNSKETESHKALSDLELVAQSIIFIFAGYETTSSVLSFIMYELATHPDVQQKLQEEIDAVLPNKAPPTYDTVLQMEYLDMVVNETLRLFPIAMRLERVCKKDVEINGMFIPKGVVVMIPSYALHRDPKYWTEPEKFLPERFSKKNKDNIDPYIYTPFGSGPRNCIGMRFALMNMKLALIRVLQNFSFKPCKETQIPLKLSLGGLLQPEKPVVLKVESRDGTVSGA

[1] = Metabolic stability in human liver microsomes; details: for CLint ± SEM / t1/2: 3 μM;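 for t1/2: microsomal protein 0.5 mg/mL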
Method in brief: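 Substrate depletion: compounds at 3 μM final with pooled mixed-sex human liver microsomes (0.5 mg/mL) in 0.1 M phosphate pH 7.4 at 37 °C. Remaining parent quantified by LC-MS/MS.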

human monocytes = experiment: Toxicity in human monocytes in the absence of viral infection; details: monocyte/macrophages, absence of viral infection
Description: Fresh human monocytes were infected with the BaL strain of HIV-1 in the presence of test compounds. After seven days in culture, HIV-1 replication was evaluated by measurement of HIV-1 viral capsid protein (p24) in the tissue culture supernatant (Table 7). […] A TI was calculated as described above using TC50 values derived from cell toxicity data in response to test compounds in the absence of viral infection.

beagle dog hepatocytes = experiment: Metabolic stability in beagle dog hepatocytes; format: in vitro ADME; details: 0.1 uM
HIV-1RF = experiment: Anti-HIV cytoprotection in CEM-SS cells infected with HIV-1RF (XTT); format: cell-based; details: six days, XTT; read-out: CEM-SS/HIV-1RF EC50 ± SD
Description: To evaluate whether conjugated protease inhibitors retain the ability to protect against HIV-1 infection, CEM-SS cells infected with the RF strain of HIV-1 were treated with test compounds for six days, and then cell viability was monitored using the tetrazolium dye XTT. […] A value for Therapeutic Index (TI) was calculated as TC50/EC50.

in vitro [2] = details: human; for Papp A→B: Caco-2, A→B, ×10^−6
Description: Absorption properties of various compounds were measured using bi-directional permeability assays in Caco-2 cells. […] The efflux ratio is calculated as the ratio of the Papp(B→A)/Papp(A→B).

in vitro [3] = format: in vitro ADME; details: dog, microsomes
Text: Metabolic stability of test compounds was studied in dog liver microsomes.

in vitro [4] = format: in vitro ADME; details: monkey, microsomes
Text: Metabolic stability of test compounds was studied in monkey liver microsomes.

CYP1A2 = CYP1A2 (Homo sapiens (Human), UniProt P05177); experiment: CYP450 inhibition in human liver microsomes: CYP1A2
Chain of CYP1A2 (P05177 whole entry): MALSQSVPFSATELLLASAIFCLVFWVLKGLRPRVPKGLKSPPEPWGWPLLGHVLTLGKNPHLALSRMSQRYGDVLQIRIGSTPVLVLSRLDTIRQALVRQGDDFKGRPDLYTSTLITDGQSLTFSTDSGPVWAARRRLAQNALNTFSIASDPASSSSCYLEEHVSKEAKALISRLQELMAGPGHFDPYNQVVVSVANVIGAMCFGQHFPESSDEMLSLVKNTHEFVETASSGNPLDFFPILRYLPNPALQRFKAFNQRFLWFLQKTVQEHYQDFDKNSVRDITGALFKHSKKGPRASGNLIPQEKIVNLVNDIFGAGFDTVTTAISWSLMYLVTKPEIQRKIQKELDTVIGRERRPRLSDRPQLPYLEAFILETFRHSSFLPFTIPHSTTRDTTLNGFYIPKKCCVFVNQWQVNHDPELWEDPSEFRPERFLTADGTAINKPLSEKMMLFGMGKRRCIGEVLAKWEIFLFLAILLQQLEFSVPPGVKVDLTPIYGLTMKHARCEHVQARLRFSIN

[5] = Metabolic stability in rat liver microsomes; format: in vitro ADME
Text: Metabolic stability of test compounds was studied in rat liver microsomes.

[6] = molecular target: recombinant HIV-1 protease (Human immunodeficiency virus type 1 group M subtype B (isolate HXB2) (HIV-1), UniProt P04585); experiment: Enzyme inhibition of purified HIV-1 protease (SensoLyte 520 HIV-Protease Assay Kit); format: biochemical; details: IC50 ± SD
Description: Protease inhibitors (PI) are used to treat HIV infection by preventing viral assembly and maturation through the inhibition of HIV-1 protease activity. Biochemical assays were performed to evaluate the potential of PEG-PI conjugates to inhibit HIV-1 protease activity, relative to their respective PI parent molecules. Activity assays were performed at using the SensoLyte 520 HIV-Protease Assay Kit (Anaspec Inc., San Jose, Calif.) and recombinant HIV-1 protease. Protease activity was monitored by the formation of a fluorescent reporter product generated during HIV-1 protease-mediated digestion of a quenched, fluorimetric substrate containing the p17/p24 Pr^gag cleavage site.

[7] = read-out: CYP3A4 IC50 Midazolam, probe substrate midazolam
[8] = read-out: CYP3A4 IC50 Testosterone, probe substrate testosterone

SMILES | Thymidine Incorporation (PBMC) TC50 (PBMCs) [µM] | Uridine Incorporation (PBMC) TC50 (PBMCs) [µM] | Leucine Incorporation (PBMC) TC50 (PBMCs) [µM] | Thymidine incorportation (CEM-SS) TC50 (CEM-SS cells) [µM] | Uridine incorporation (CEM-SS) TC50 (CEM-SS cells) [µM] | Leucine Incorporation (CEM-SS) TC50 (CEM-SS cells) [µM] | IC50 (CYP3A4; [7]) [µM] | IC50 (CYP3A4; [8]) [µM] | CLint ± SEM ([1]; human liver microsomes) [μL/min/mg protein] | t1/2 ([1]; human liver microsomes) [min] | TC50 (human monocytes) [µM] | EC50 (HIV-1RF) | Papp A→B (in vitro [2]) [×10⁻⁶ cm/s] | half-life (in vitro [3]) [min] | microsomal CLint (in vitro [3]) [µL/min/mg] | half-life (in vitro [4]) [min] | microsomal CLint (in vitro [4]) [µL/min/mg] | IC50 (CYP1A2) [µM] | half-life [5] [min] | other results
COCCOCCOCCOCCOCCOc1ccc(C[C@H](NC(=O)O[C@H]2CO[C@H]3OCC[C@H]32)C(O)CN(CC(C)C)S(=O)(=O)c2ccc(N)cc2)cc1 (stereo partly shown) [mPEG5-O-Darunavir] | >400.0 | >400.0 | >400.0 | 165.7 | >400 | >400 | > 2.5 | > 25 | 198 ± 22.1 | 7.00 | >200.0 |  |  |  |  |  |  |  |  | CLint ± SEM (beagle dog hepatocytes): 4.93 ± 0.000253 μL/min/10^6 cells; t1/2 (beagle dog hepatocytes): 281 min
COCCOCCOCCOCCOCCOCCOCCNc1ccc(S(=O)(=O)N(CC(C)C)CC(O)[C@H](Cc2ccccc2)NC(=O)O[C@H]2CO[C@H]3OCC[C@H]32)cc1 (stereo partly shown) [mPEG7-N-Darunavir] |  |  |  |  |  |  | 5.4 | 12.9 | 356 ± 7.74 | 3.89 | >200.0 | 0.014 µM and 0.011 µM |  |  |  |  |  |  |  | 
COCCOCCOCCOC(=O)NC(C(=O)NC(Cc1ccccc1)C(O)CN(Cc1ccc(-c2ccccn2)cc1)NC(=O)C(NC(=O)OC)C(C)(C)C)C(C)(C)C (stereo not shown) [mono-mPEG3-Atazanavir, {1-[N′-[2-Hydroxy-3-(2-{2-[2-(2-methoxy-ethoxy)-ethoxy]-ethoxycarbonylamino}-3,3-dimethyl-butyrylamino)-4-phenyl-butyl]-N′-(4-pyridin-2-yl-benzyl)-hydrazinocarbonyl]-2,2-dimethyl-propyl}-carbamic Acid Methyl Ester] | 36.6 | 27.7 | 82.0 | 396.2 | 396.6 | >400 |  |  | 172 ± 1.39 | 8.04 |  | 0.003 ± 0.002 µM | 0.53 | 7.42 | 187 | 26.8 | 249 | > 25 | 26.8 | efflux ratio (in vitro [2]; Caco-2): 44; IC50 (CYP3A4; CYP3A4 IC50 Midazolam, probe substrate midazolam): 2.85 µM; IC50 (CYP3A4; CYP3A4 IC50 Testosterone, probe substrate testosterone): 12.8 µM; microsomal CLint at 3 μM ([1]; both, human, pooled human liver microsomes, pH 7.4, CLint ± SEM, human liver microsomes): 248 ± 31.7 µL/min/mg; half-life at 3 μM ([1]; both, human, pooled human liver microsomes, pH 7.4, t1/2, human liver microsomes): 5.58 min
COC(=O)N[C@H](C(=O)N[C@@H](Cc1ccccc1)[C@@H](O)CN(Cc1ccc(-c2ccccn2)cc1)NC(=O)[C@@H](NC(=O)OC)C(C)(C)C)C(C)(C)C [Atazanavir, reference compound] | 81.1 | 87.2 | 94.7 | 288.3 | 281.4 | 259.6 |  |  |  |  |  | 0.015 ± 0.014 µM | 2.05 | 51.8 | 26.8 | 24.2 | 42.9 | 20.6 | 24.2 | IC50 [6]: 0.00155 µM and 0.00692 µM and 0.00512 µM and 0.0076 µM and 0.00737 µM
